In patent US9828368B2 (MERCK SHARP & DOHME CORP., priority 2013, dated 2017) one finds IC50 data, which are given here for 13 molecules.

In general, IC50 refers to the concentration that gives 50% inhibition.

One experiment has as its target human orexin-2 receptor (Homo sapiens (Human), UniProt O43614). Description: FLIPR Ca2+ flux assay, hOX2R. As to conditions: CHO cells expressing human orexin-2 receptor; agonist 70 pM Ala-6,12 orexin-A. The class given is cell-based. On the procedure: In a typical experiment the OX1 and OX2 receptor antagonistic activity of the compounds of the present invention was determined in accordance with the following experimental method. For intracellular calcium measurements, Chinese hamster ovary (CHO) cells expressing the rat orexin-1 receptor or the human orexin-2 receptor, are grown in Iscove's modified DMEM containing 2 mM L-glutamine, […], 1% hypoxanthine-thymidine supplement, 100 U/ml penicillin, 100 μg/ml streptomycin and 10% heat-inactivated fetal calf serum (FCS). The cells are seeded at 20,000 cells/well into Becton-Dickinson black 384-well clear bottom sterile plates coated with poly-D-lysine. All reagents were from GIBCO-Invitrogen Corp. The seeded plates are incubated overnight at 37° C. and 5% CO2. Ala-6,12 human orexin-A as the agonist is prepared as a 1 mM stock solution in 1% bovine serum albumin (BSA) and diluted in assay buffer (HBSS containing 20 mM HEPES, 0.1% BSA and 2.5 mM probenecid, pH7.4) for use in the assay at a final concentration of 70 pM. Test compounds are prepared as 10 mM stock solution in DMSO, then diluted in 384-well plates, first in DMSO, then assay buffer. On the day of the assay, cells are washed 3 times with 100 μl assay buffer and then incubated for 60 min (37° C., 5% CO2) in 60 μl assay buffer containing 1 μM Fluo-4AM ester, 0.02% pluronic acid, and 1% BSA. The dye loading solution is then aspirated and cells are washed 3 times with 100 μl assay buffer. 30 μl of that same buffer is left in each well. Within the Fluorescent Imaging Plate Reader (FLIPR, Molecular Devices), test compounds are added to the plate in a volume of 25 μl, incubated for 5 min and finally 25 μl of agonist is added. Fluorescence is measured for each well at 1 second intervals for 5 minutes and the height of each fluorescence peak is compared to the height of the fluorescence peak induced by 70 pM Ala-6,12 orexin-A with buffer in place of antagonist. […] The intrinsic orexin receptor antagonist activity of a compound which may be used in the present invention may be determined by these assays.
On the technique in general: Calcium flux is commonly read through the fluorescence of an indicator in the cells.

For another experiment, the target named is hOX1R (Homo sapiens, UniProt O43613). As to the kind of experiment: FLIPR Ca2+ flux assay, hOX1R. The format is cell-based.
Setting [1] is: CHO cells, agonist 70 pM Ala-6,12 orexin-A, rat orexin-1 receptor, read-out: hOX1R FLIPR IC50.

Like-named read-outs stand apart in the source and are kept apart here. Where only a bound is given, the exact number is not on record here.

human orexin-2 receptor, sequence (O43614 whole entry): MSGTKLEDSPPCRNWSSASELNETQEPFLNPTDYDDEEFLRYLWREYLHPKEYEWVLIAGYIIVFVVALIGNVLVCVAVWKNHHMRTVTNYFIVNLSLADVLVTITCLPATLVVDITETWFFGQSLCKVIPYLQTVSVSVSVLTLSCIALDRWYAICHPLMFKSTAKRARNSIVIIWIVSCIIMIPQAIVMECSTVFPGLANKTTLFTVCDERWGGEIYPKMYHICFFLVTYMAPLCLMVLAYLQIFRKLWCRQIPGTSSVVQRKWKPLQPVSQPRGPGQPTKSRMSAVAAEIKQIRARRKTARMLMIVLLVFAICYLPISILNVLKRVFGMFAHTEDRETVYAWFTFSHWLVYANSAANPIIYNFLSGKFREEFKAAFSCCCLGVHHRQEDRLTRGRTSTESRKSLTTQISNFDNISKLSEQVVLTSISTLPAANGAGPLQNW

As to `CC(O)c1nc([C@@H]2CC[C@@H](C)N(C(=O)c3ccccc3-n3nccn3)C2)oc1-c1ccccc1` (single isomer, unassigned) [Example 64], the 50% inhibitory concentration (IC50) on human orexin-2 receptor was determined as 76 nM; at hOX1R (setting [1]), 136 nM. On the same counts, the results for `CC(O)c1nc([C@@H]2CC[C@@H](C)N(C(=O)c3ccccc3-n3nccn3)C2)oc1-c1ccccc1` (single isomer, unassigned) [Example 65] are 130 nM and 155 nM. For the molecule `CCC(C)(O)c1nc([C@@H]2CC[C@@H](C)N(C(=O)c3ccsc3-n3nccn3)C2)oc1C` (stereo in doubt) [Example 48, (2-(2H-1,2,3-Triazol-2-yl)thiophen-3-yl)((2R,5R)-5-(4-((S)-2-hydroxybutan-2-yl)-5-methyloxazol-2-yl)-2-methylpiperidin-1-yl)methanone], the half-maximal inhibitory concentration (IC50) at hOX1R (setting [1]) was found to be 1810 nM. As for `C[C@@H]1CC[C@@H](c2nc(Br)co2)CN1C(=O)c1ccccc1-n1nccn1` [Example 1, (2-(2H-1,2,3-Triazol-2-yl)phenyl)((2R,5R)-5-(4-bromooxazol-2-yl)-2-methylpiperidin-1-yl)methanone], the IC50 on human orexin-2 receptor is 138 nM; at hOX1R, around 7900 nM. As for `COC(=O)C1CC1c1coc([C@@H]2CC[C@@H](C)N(C(=O)c3ccccc3-n3nccn3)C2)n1` (stereo partly drawn) [Example 2, Methyl 2-(2-((3R,6R)-1-(2-(2H-1,2,3-triazol-2-yl)benzoyl)-6-methylpiperidin-3-yl)oxazol-4-yl)cyclopropanecarboxylate], the half-maximal inhibitory concentration (IC50) on human orexin-2 receptor is 49 nM; at hOX1R (setting [1]), 3000 nM. For `C[C@@H]1CC[C@@H](c2nc(C3CC3)co2)CN1C(=O)c1ccccc1-n1nccn1` [Example 4, (2-(2H-1,2,3-Triazol-2-yl)phenyl)((2R,5R)-5-(4-cyclopropyloxazol-2-yl)-2-methylpiperidin-1-yl)methanone], the 50% inhibitory concentration (IC50) at human orexin-2 receptor was 47 nM; on hOX1R (setting [1]), 700 nM. The corresponding values for `C[C@@H]1CC[C@@H](c2nc(-c3ccccc3CO)co2)CN1C(=O)c1ccccc1-n1nccn1` [Example 5, (2-(2H-1,2,3-Triazol-2-yl)phenyl)((2R,5R)-5-(4-(2-(hydroxymethyl)phenyl)oxazol-2-yl)-2-methylpiperidin-l-yl)methanone] are 30 nM and 46 nM. The corresponding values for `C[C@@H]1CC[C@@H](c2nc(-c3cccc(F)n3)co2)CN1C(=O)c1ccccc1-n1nccn1` [Example 6, (2-(2H-1,2,3-Triazol-2-yl)phenyl)((2R, 5R)-5-(4-(6-fluoropyridin-2-yl)oxazol-2-yl)-2-methylpiperidin-1-yl)methanone] are 150 nM and 670 nM. The molecule `COc1ccccc1C(=O)N1C[C@H](c2nc(C(C)(C)O)c(C)o2)CC[C@H]1C` [Example 31, ((2R,5R)-5-(4-(2-Hydroxypropan-2-yl)-5-methyloxazol-2-yl)-2-methypiperidin-1-yl)(2-methoxyphenyl)methanone] registered an IC50 at human orexin-2 receptor of 80 nM. Consider `Cc1oc([C@@H]2CC[C@@H](C)N(C(=O)c3cscc3-c3ncccn3)C2)nc1C(C)(C)O` [Example 36], for which the half-inhibitory concentration (IC50) on hOX1R (setting [1]) was above 10000 nM. Turning to `CC[C@](C)(O)c1nc([C@@H]2CC[C@@H](C)N(C(=O)c3ccsc3-n3nccn3)C2)oc1C` [Example 49, (2-(2H-1,2,3-triazol-2-yl)thiophen-3-yl)((2R,5R)-5-(4-((S)-2-hydroxybutan-2-yl)-5-methyloxazol-2-yl)-2-methylpiperidin-1-yl)methanone], the 50% inhibitory concentration (IC50) at hOX1R (setting [1]) was determined as 1740 nM. `C[C@@H]1CC[C@@H](c2nc(CN(C)C)c(-c3ccccc3)o2)CN1C(=O)c1ccccc1-n1nccn1` [Example 66, (2-(2H-1,2,3-Triazol-2-yl)phenyl)((2R,5R)-5-(4-((dimethylamino)methyl)-5-phenyloxazol-2-yl)-2-methylpiperidin-1-yl)methanone] registered an IC50 on human orexin-2 receptor of 983 nM. Take `COC(=O)Cc1nc([C@@H]2CC[C@@H](C)N(C(=O)c3ccccc3-n3nccn3)C2)oc1-c1ccccc1` [Example 67]: at hOX1R (setting [1]), the concentration for half-maximal inhibition (IC50) was found to be 93 nM.
